From patent publication US20180044350A1, “THERAPEUTIC CYCLIC COMPOUNDS AS IMMUNOMODULATORS” (priority 2015, published 2018) come the findings set out here.

Each structure is given as a SMILES string.

In the test the target is T1, Recombinant mouse PD-L1 (Mus musculus, UniProt Q9EP73).
T1 construct: Fc (Fc chimera); purchased R&D Systems 1019-B7-100
T1 sequence (Q9EP73 with tags, fused parts or gaps limits assumed): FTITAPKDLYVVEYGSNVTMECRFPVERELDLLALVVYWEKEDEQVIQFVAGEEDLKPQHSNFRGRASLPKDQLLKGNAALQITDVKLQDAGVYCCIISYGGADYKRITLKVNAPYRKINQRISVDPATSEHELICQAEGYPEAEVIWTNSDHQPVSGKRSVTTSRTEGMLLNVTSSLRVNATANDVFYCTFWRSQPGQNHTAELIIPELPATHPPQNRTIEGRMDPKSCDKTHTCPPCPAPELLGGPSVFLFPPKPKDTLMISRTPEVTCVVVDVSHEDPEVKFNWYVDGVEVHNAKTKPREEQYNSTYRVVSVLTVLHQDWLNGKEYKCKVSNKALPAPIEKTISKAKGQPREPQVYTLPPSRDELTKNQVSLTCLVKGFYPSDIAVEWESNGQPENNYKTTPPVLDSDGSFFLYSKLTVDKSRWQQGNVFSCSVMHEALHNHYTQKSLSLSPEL
The experiment in a line: Rescue of mouse splenocyte proliferation in the presence of recombinant PD-L1 (CFSE proliferation assay). Particulars: 100 nM compound; anti-CD3/CD28 stimulated CFSE-labelled mouse splenocytes + PD-L1, 72 h; normalised to stimulated splenocyte proliferation as 100%; read-out: Percent rescue of proliferation (@100 nM compound concentration). It is filed as cell-based. The protocol:
Rescue of Mouse Splenocyte Proliferation in the Presence of Recombinant PD-L1
Recombinant mouse PD-L1 (rm-PDL-1, cat no: 1019-B7-100; R&D Systems) were used as the source of PD-L1.
Mouse splenocytes harvested from 6-8 weeks old C57 BL6 mice; RPMI 1640 (GIBCO, Cat #11875); DMEM with high glucose (GIBCO, Cat #D6429); Fetal Bovine Serum └Hyclone, Cat #SH30071.03┘; Penicillin (10000 unit/mL)-Streptomycin(10,000 μg/mL) Liquid (GIBCO, Cat #15140-122); MEM Sodium Pyruvate solution 100 mM (100×), Liquid (GIBCO, Cat #11360); Nonessential amino acid (GIBCO, Cat #11140); L-Glutamine (GIBCO, Cat #25030); Anti-CD3 antibody (eBiosciences—16-0032); Anti-CD28 antibody (eBiosciences—16-0281); ACK lysis buffer (1 mL) (GIBCO, Cat #-A10492); Histopaque (density-1.083 gm/mL) (SIGMA 10831); Trypan blue solution (SIGMA-T8154); 2 mL Norm Ject Luer Lock syringe-(Sigma 2014-12); 40 μm nylon cell strainer (BD FALCON 35230); Hemacytometer (Bright line-SIGMA Z359629); FACS Buffer (PBS/0.1% BSA): Phosphate Buffered Saline (PBS) pH 7.2 (HiMedia TS1006) with 0.1% Bovine Serum Albumin (BSA) (SIGMA A7050) and sodium azide (SIGMA 08591); 5 mM stock solution of CFSE: CFSE stock solution was prepared by diluting lyophilized CFSE with 180 μL of Dimethyl sulfoxide (DMSO C2H6SO, SIGMA-D-5879) and aliquoted in to tubes for further use. Working concentrations were titrated from 10 μM to 1 μM. (eBioscience-650850-85); 0.05% Trypsin and 0.02% EDTA (SIGMA 59417C); 96-well format ELISA plates (Corning CLS3390); BD FACS caliber (E6016); Recombinant mouse B7-H1/PDL1 Fc Chimera, (rm-PD-L1 cat no: 1019-B7-100).
Splenocytes harvested in a 50 mL falcon tube by mashing mouse spleen in a 40 μm cell strainer were further treated with 1 mL ACK lysis buffer for 5 min at room temperature. After washing with 9 mL of RPMI complete media, cells were re-suspended in 3 mL of 1×PBS in a 15 mL tube. 3 mL of Histopaque was added carefully to the bottom of the tube without disturbing overlaying splenocyte suspension. After centrifuging at 800×g for 20 min at room temperature, the opaque layer of splenocytes was collected carefully without disturbing/mixing the layers. Splenocytes were washed twice with cold 1×PBS followed by total cell counting using Trypan Blue exclusion method and used further for cell based assays.
Splenocytes were cultured in RPMI complete media (RPMI+10% fetal bovine serum+1 mM sodium pyruvate+10,000 units/mL penicillin and 10,000 μg/mL streptomycin) and maintained in a CO2 incubator with 5% CO2 at 37° C.
CFSE is a dye that passively diffuses into cells and binds to intracellular proteins. 1×10^6 cells/mL of harvested splenocytes were treated with 5 μM of CFSE in pre-warmed 1×PBS/0.1% BSA solution for 10 min at 37° C. Excess CFSE was quenched using 5 volumes of ice-cold culture media to the cells and incubated on ice for 5 min CFSE labelled splenocytes were further given three washes with ice cold complete RPMI media. CFSE labelled 1×10^5 splenocytes added to wells containing either MDA-MB231 cells (1×10^5 cells cultured in high glucose DMEM medium) or recombinant human PDL-1 (100 ng/mL) and test compounds. Splenocytes were stimulated with anti-mouse CD3 and anti-mouse CD28 antibody (1 μg/mL each) and the culture was further incubated for 72 h at 37° C. with 5% CO2. Cells were harvested and washed thrice with ice cold FACS buffer and % proliferation was analysed by flow cytometry with 488 nm excitation and 521 nm emission filters.
Percent splenocyte proliferation was analysed using cell quest FACS program and percent rescue of splenocyte proliferation by compound was estimated after deduction of % background proliferation value and normalising to % stimulated splenocyte proliferation (positive control) as 100%.
Stimulated splenocytes: Splenocytes+anti-CD3/CD28 stimulation.
Background proliferation: Splenocytes+anti-CD3/CD28+PD-L1.
Compound proliferation: Splenocytes+anti-CD3/CD28+PD-L1+Compound. […]
Consider `NCCCC[C@@H]1NC(=O)COCCOCCNC(=O)[C@H](CCCCN)NC(=O)N[C@@H](CCCCN)C(=O)NNC1=O` [Compound 5], for which the activation at 0.1 µM worked out at 24%.
The value for `CC(O)[C@@H]1NC(=O)N[C@@H](CCCCN)C(=O)NNC(=O)[C@H](CO)NC(=O)COCCOCCNC1=O` (some centres unmarked) [Compound 6] was 40%; that for `O=C(O)C[C@@H]1NC(=O)COCCOCCNC(=O)[C@H](CC(=O)O)NC(=O)N[C@@H](CC(=O)O)C(=O)NNC1=O` [Compound 10] was 53%; that for `O=C1COCCOCCNC(=O)[C@H](Cc2ccc(O)cc2)NC(=O)N2CCCC2C(=O)NNC(=O)[C@H](Cc2ccc(O)cc2)N1` (some centres unmarked) [Compound 1] was 76%.
Consider `CCC(C)[C@@H]1NC(=O)N[C@@H](CCC(=O)O)C(=O)NCCOCCOCC(=O)N[C@@H](CCC(N)=O)C(=O)NNC1=O` (some centres unmarked) [Compound 15], for which the activation at 0.1 µM was 40%.
In the case of `CC(O)[C@@H]1NC(=O)N[C@@H](Cc2ccccc2)C(=O)NNC(=O)[C@H](CO)NC(=O)COCCOCCNC1=O` (some centres unmarked) [Compound 3], the activation at 0.1 µM is 66%.
The value for `CCC(C)[C@@H]1NC(=O)N[C@@H](CCC(N)=O)C(=O)NCCOCCOCC(=O)N[C@@H](CCC(=O)O)C(=O)NNC1=O` (some centres unmarked) [Compound 17] was 38%; that for `CCC(C)[C@@H]1NC(=O)N[C@@H](C(C)O)C(=O)NCCOCCOCC(=O)N[C@@H](CO)C(=O)NNC1=O` (some centres unmarked) [Compound 7] was 23%; that for `CC(C)C[C@@H]1NC(=O)N[C@@H](CC(N)=O)C(=O)NNC(=O)[C@H](CO)NC(=O)COCCOCCNC1=O` [Compound 13] was 53%.
On to `CC(O)[C@@H]1NC(=O)N[C@@H](Cc2ccccc2)C(=O)NNC(=O)[C@H](CCCCN)NC(=O)COCCOCCNC1=O` (some centres unmarked) [Compound 16], for which the activation at 0.1 µM was 30%.
Take `CC(O)[C@@H]1NC(=O)COCCOCCNC(=O)[C@H](C(C)O)NC(=O)N[C@@H](C(C)O)C(=O)NNC1=O` (some centres unmarked) [Compound 12]: the activation at 0.1 µM came to 91%.
`CC(O)[C@@H]1NC(=O)N[C@@H](CC(N)=O)C(=O)NNC(=O)[C@H](CC(=O)O)NC(=O)COCCOCCNC1=O` (some centres unmarked) [Compound 9]: the activation at 0.1 µM worked out at 46%.
Turning to `CC(O)[C@@H]1NC(=O)N[C@@H](CC(N)=O)C(=O)NNC(=O)[C@H](CCCCN)NC(=O)COCCOCCNC1=O` (some centres unmarked) [Compound 2], the activation at 0.1 µM is 57%.
Consider `O=C1COCCOCCNC(=O)[C@H](CO)NC(=O)N[C@@H](CO)C(=O)NNC(=O)[C@H](CO)N1` [Compound 11], for which the activation at 0.1 µM came out at 17%.
